SMILES strings stand for the structures. Where a name gives a salt, the structure may show the parent alone. Bounds are passed on as bounds.

Take `Cc1ccc(CNC2CCC(=O)NC2=O)cc1` (racemic) (as salt: hydrochloride) [Example 2.38, 3-(4-methylbenzylamino) piperidine-2,6-dione]: the melting point is 256 °C (dec.).
The compound `O=C1CCC(NCc2cc(Cl)cc(Cl)c2)C(=O)N1` (racemic) (as salt: hydrochloride) [Example 2.17, 3-(3,5-dichlorobenzylamino) piperidine-2,6-dione] came in with a melting point of 234 to 238 °C.
The result for `O=C1CCC(CNc2ccc(-c3ccccc3)cc2)C(=O)N1` (stereo not shown) [Example 11.4, 3-(biphenyl-4-ylaminomethyl) piperidine-2,6-dione] reads 135 to 138 °C; that for `O=C1CCC(NCc2cccc(Br)c2)C(=O)N1` (racemic) (as salt: hydrochloride) [Example 2.35, 3-(3-bromobenzylamino) piperidine-2,6-dione], 229 to 232 °C.
As for `O=C1CCC(NCc2ccccc2Br)C(=O)N1` (racemic) (as salt: hydrochloride) [Example 2.30, 3-(2-bromobenzylamino) piperidine-2,6-dione], the figure is 244 to 246 °C.
The result for `COc1cccc(CNC2CCC(=O)NC2=O)c1` (racemic) (as salt: hydrochloride) [Example 2.41, 3-(3-methoxybenzylamino) piperidine-2,6-dione] reads 217 to 219 °C; that for `O=C1CCC(NCc2c(F)cccc2F)C(=O)N1` (racemic) (as salt: hydrochloride) [Example 2.3, 3-(2,6-difluorobenzylamino) piperidine-2,6-dione], 208 to 215 °C (dec.).
As for `O=C1CCC(NCc2cc(F)cc(F)c2)C(=O)N1` (racemic) (as salt: hydrochloride) [Example 2.5, 3-(3,5-difluorobenzylamino) piperidine-2,6-dione], the melting point is 230 to 236 °C (dec.).
As for `O=C1CCC(NCc2cc(Cl)ccc2Cl)C(=O)N1` (racemic) (as salt: hydrochloride) [Example 2.40, 3-(2,5-dichlorobenzylamino) piperidine-2,6-dione], the figure is 242 to 246 °C; as for `CC(=O)c1ccc(NCC2CCC(=O)NC2=O)cc1` (stereo not shown) [Example 11.16, 3-[(4-acetylphenylamino)methyl]piperidine-2,6-dione], 160 °C.
In the case of `CN(CC1CCC(=O)NC1=O)c1ccccc1` (stereo not shown) [Example 11.10, 3-[(N-methyl-N-phenylamino)methyl]piperidine-2,6-dione], the melting point was in the range of 132 to 134 °C.
On to `O=C1CCC(NCc2cc(F)ccc2F)C(=O)N1` (racemic) (as salt: hydrochloride) [Example 2.4, 3-(2,5-difluorobenzylamino) piperidine-2,6-dione], for which the melting point is 208 °C (dec.).
The compound `Cc1cccc(CNC2CCC(=O)NC2=O)c1` (racemic) (as salt: hydrochloride) [Example 2.20, 3-(3-methylbenzylamino) piperidine-2,6-dione] returned a melting point of 240 to 242 °C.
The result for `Cc1ccccc1CNC1CCC(=O)NC1=O` (racemic) (as salt: hydrochloride) [Example 2.16, 3-(2-methylbenzylamino) piperidine-2,6-dione] reads 235 to 240 °C; that for `CC(=O)c1cccc(NCC2CCC(=O)NC2=O)c1` (stereo not shown) [Example 11.9, 3-[(3-acetylphenylamino)methyl]piperidine-2,6-dione], 129 to 132 °C; that for `O=C1CCC(NCc2ccccc2F)C(=O)N1` (racemic) (as salt: hydrochloride) [Example 2.29, 3-(2-fluorobenzylamino) piperidine-2,6-dione], 245 to 247 °C.
As for `O=C1CCC(NCc2ccc(Cl)cc2Cl)C(=O)N1` (racemic) (as salt: hydrochloride) [Example 2.28, 3-(2,4-dichlorobenzylamino) piperidine-2,6-dione], the figure is 240 to 242 °C; as for `O=C1CCC(CSCCc2ccccc2)C(=O)N1` (stereo not shown) [Example 13.2, 3-phenethylsulfanylmethyl piperidine-2,6-dione], 78 °C.
As for `NNC(=O)c1ccccc1CN[C@H]1CCC(=O)NC1=O` (as salt: hydrobromid) [Example 8.6, 2-[(3S)-(2,6-dioxopiperidin-3-ylamino)methyl]benzoic acid hydrazide], the figure is 241 to 242 °C.
For the compound `O=C1CCC(CNc2cccc(C(=O)c3ccccc3)c2)C(=O)N1` (stereo not shown) [Example 11.17, 3-[(3-benzoylphenylamino)methyl]piperidine-2,6-dione], the melting point fell in the range of 152 to 158 °C.
As for `COc1ccc(CNC2CCC(=O)NC2=O)c(OC)c1` (racemic) (as salt: hydrochloride) [Example 2.2, 3-(2,4-dimethoxybenzylamino) piperidine-2,6-dione], the figure is 214 °C (dec.); as for `NC(=O)c1ccccc1CN[C@@H]1CCC(=O)NC1=O` (as salt: hydrobromid) [Example 8.12, 2-[(3R)-(2,6-dioxopiperidin-3-ylamino)methyl]benzamide], 232 to 233 °C.
As for `O=C1CCC(CNc2ccc(Br)cc2)C(=O)N1` (stereo not shown) [Example 11.1, 3-[(4-bromophenylamino)methyl]piperidine-2,6-dione], the figure is 149 to 150 °C; as for `O=C1CCC(CNc2cccc3ccccc23)C(=O)N1` (stereo not shown) [Example 11.3, 3-(naphth-1-ylaminomethyl) piperidine-2,6-dione], 145 to 148 °C; as for `O=C1CCC(NCc2ccc(OC(F)(F)F)cc2)C(=O)N1` (racemic) (as salt: hydrochloride) [Example 2.36, 3-(4-trifluoromethoxybenzylamino) piperidine-2,6-dione], 253 to 255 °C.
As for `O=C1CCC(NCc2cccc(Cl)c2)C(=O)N1` (racemic) (as salt: hydrochloride) [Example 2.26, 3-(3-chlorobenzylamino) piperidine-2,6-dione], the figure is 237 to 238 °C; as for `COc1ccc(NCC2CCC(=O)NC2=O)cc1` (stereo not shown) [Example 11.13, 3-[(4-methoxyphenylamino)methyl]piperidine-2,6-dione], 131 to 134 °C; as for `O=C1CCC(NCc2cc(C(F)(F)F)cc(C(F)(F)F)c2)C(=O)N1` (racemic) (as salt: hydrochloride) [Example 2.34, 3-[3,5-bis(trifluoromethyl)benzylamino]piperidine-2,6-dione], 263 to 265 °C.
On to `O=C1CCC(NCc2cccc3ccccc23)C(=O)N1` (racemic) (as salt: hydrochloride) [Example 2.6, 3-[(naphth-1-ylmethyl)amino]piperidine-2,6-dione], for which the melting point is 188 °C (dec.).
As for `O=C1CCC(NCc2cccc(F)c2)C(=O)N1` (racemic) (as salt: hydrochloride) [Example 2.19, 3-(3-fluorobenzylamino) piperidine-2,6-dione], the figure is 231 to 235 °C; as for `O=C1CCC(CNc2ccc(C(c3ccccc3)(c3ccccc3)c3ccccc3)cc2)C(=O)N1` (stereo not shown) [Example 11.6, 3-[(4-tritylphenylamino)methyl]piperidine-2,6-dione], 221 to 225 °C.
As for `O=C1CCC(NCc2ccccc2C(F)(F)F)C(=O)N1` (racemic) (as salt: hydrochloride) [Example 2.1, 3-(2-trifluoromethylbenzylamino) piperidine-2,6-dione], the figure is > 250 °C (dec.); as for `NC(=O)c1ccccc1NCC1CCC(=O)NC1=O` (stereo not shown) [Example 11.15, 2-[(2,6-dioxopiperidin-3-ylmethyl)amino]benzamide], 203 to 206 °C; as for `CN(Cc1cccc2ccccc12)C1CCC(=O)NC1=O` (racemic) [Example 4.5, 3-(methylnaphth-1-ylmethylamino) piperidine-2,6-dione], 157 to 162 °C.
The result for `CCOc1ccccc1CNC1CCC(=O)NC1=O` (racemic) (as salt: hydrochloride) [Example 2.39, 3-(2-ethoxybenzylamino) piperidine-2,6-dione] reads 208 to 212 °C; that for `O=C1CCC(NCc2ccc(F)cc2Cl)C(=O)N1` (racemic) (as salt: hydrochloride) [Example 2.13, 3-(2-chloro-4-fluorobenzylamino) piperidine-2,6-dione], 241 to 242 °C; that for `O=C1CCC(NCc2ccc(F)cc2)C(=O)N1` (racemic) (as salt: hydrochloride) [Example 2.23, 3-(4-fluorobenzylamino) piperidine-2,6-dione], 241 to 242 °C.
`O=C1CCC(NCc2cccc(Cl)c2Cl)C(=O)N1` (racemic) (as salt: hydrochloride) [Example 2.32, 3-(2,3-dichlorobenzylamino) piperidine-2,6-dione] displayed a melting point of 246 to 248 °C.
As for `O=C1CCC(NCc2ccc3ccccc3c2)C(=O)N1` (racemic) [Example 2.12, 3-[(naphth-2-ylmethyl)amino]piperidine-2,6-dione], the figure is 120 to 125 °C (dec.).
`O=C1CCC(NCc2cc(F)cc(C(F)(F)F)c2)C(=O)N1` (racemic) (as salt: hydrochloride) [Example 2.18, 3-[3-fluoro-5-(trifluoromethyl)benzylamino]piperidine-2,6-dione] gave a melting point of 241 to 243 °C.
Turning to `O=C1CCC(CNc2cccc(C(F)(F)F)c2)C(=O)N1` (stereo not shown) [Example 11.2, 3-[(3-trifluoromethylphenylamino)methyl]piperidine-2,6-dione], the melting point fell in the range of 135 to 138 °C.
The result for `O=C1CC[C@H](NCc2ccccc2C(=O)Nc2ccccc2)C(=O)N1` (as salt: hydrobromid) [Example 8.7, 2-[(3S)-(2,6-dioxopiperidin-3-ylamino)methyl]-N-phenylbenzamide] reads 136 to 138 °C; that for `O=C1CCC(NCc2cccc(OC(F)(F)F)c2)C(=O)N1` (racemic) (as salt: hydrochloride) [Example 2.11, 3-(3-trifluoromethoxybenzylamino) piperidine-2,6-dione], 199 to 201 °C.

For orientation: melting point means the temperature of the solid-liquid transition.

The values above are taken from patent publication US6656937B2, “Substituted glutarimides and their use as inhibitors of IL-12 production” (Gruenenthal, GmbH, priority 2000, dated 2003).
